The results in this text go back to PubChem BioAssay AID192 (DTP/NCI, 2004).

Where “and” joins values, the source holds several entries; their conditions need not be identical. Identical values can stand only once. Toxic doses and inconclusive results are not listed.

The assay has as its system BDF1 mice, B16 melanoma ip, median survival T/C. In words: NCI In Vivo Anticancer Drug Screen. Data for tumor model B16 Melanoma (intraperitoneal) in B6D2F1 (BDF1) mice. The note with it: endpoint: median survival time, higher = longer survival. The method, boiled down:
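Values are ratios of treated (T) to vehicle-control (C) measurements of survival or tumor size in tumor-bearing mice.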

[1] abbreviates: dose: 0.25 mg/kg/injection, schedule: Q01DX009 (ip), vehicle: saline.
Where [2] appears, read: dose: 50.0 mg/kg/injection, schedule: Q01DX009 (ip), vehicle: Klucel (hydroxypropylcellulose) (HPC).
The mark [3] stands for this setting: dose: 100.0 mg/kg/injection, schedule: Q01DX009 (ip), vehicle: Klucel (hydroxypropylcellulose) (HPC).
Where [4] appears, read: dose: 200.0 mg/kg/injection, schedule: Q01DX009 (ip), vehicle: Klucel (hydroxypropylcellulose) (HPC).
Setting [5] is: dose: 400.0 mg/kg/injection, schedule: Q01DX009 (ip), vehicle: Klucel (hydroxypropylcellulose) (HPC).

As for `COC1C(O)CC(OC2CC(Oc3cc4cc5c(c(O)c4c(O)c3C)C(=O)[C@@H](OC3CC(OC4CC(OC6CC(C)(O)C(OC(C)=O)C(C)O6)C(O)C(C)O4)C(O)C(C)O3)[C@H]([C@H](OC)C(=O)[C@@H](O)[C@@H](C)O)C5)OC(C)C2OC(C)=O)OC1C` (stereo partly specified), the T/C was 111 % of control (dose: 0.01 mg/kg/injection, schedule: Q01DX009 (ip), vehicle: Klucel (hydroxypropylcellulose) (HPC)); 111 % of control (dose: 0.02 mg/kg/injection, schedule: Q01DX009 (ip), vehicle: Klucel (hydroxypropylcellulose) (HPC)); 167 % of control (dose: 0.02 mg/kg/injection, schedule: Q01DX009 (ip), vehicle: saline); 152 % of control (dose: 0.03 mg/kg/injection, schedule: Q01DX009 (ip), vehicle: saline); 123 % of control (dose: 0.04 mg/kg/injection, schedule: Q01DX009 (ip), vehicle: Klucel (hydroxypropylcellulose) (HPC)); 175 % of control (dose: 0.04 mg/kg/injection, schedule: Q01DX009 (ip), vehicle: saline). Also, the T/C is, setting by setting: (dose: 0.07 mg/kg/injection, schedule: Q01DX009 (ip), vehicle: saline) 161 % of control; (dose: 0.08 mg/kg/injection, schedule: Q01DX009 (ip), vehicle: saline) 154 % of control; (dose: 0.13 mg/kg/injection, schedule: Q01DX009 (ip), vehicle: saline) 150 % of control; (dose: 0.16 mg/kg/injection, schedule: Q01DX009 (ip), vehicle: Klucel (hydroxypropylcellulose) (HPC)) 150 % of control and 157 % of control; (dose: 0.16 mg/kg/injection, schedule: Q01DX009 (ip), vehicle: saline) 152 % of control; under setting [1], 152 % of control. Besides, the T/C reads like this: (dose: 0.32 mg/kg/injection, schedule: Q01DX009 (ip), vehicle: saline) 94 % of control; (dose: 3.8 micrograms/kg/injection, schedule: Q01DX009 (ip), vehicle: water) 111 % of control; (dose: 7.5 micrograms/kg/injection, schedule: Q01DX009 (ip), vehicle: water) 109 % of control; (dose: 15.0 micrograms/kg/injection, schedule: Q01DX009 (ip), vehicle: Klucel (hydroxypropylcellulose) (HPC)) 109 % of control; (dose: 15.0 micrograms/kg/injection, schedule: Q01DX009 (ip), vehicle: saline) 94 % of control; (dose: 30.0 micrograms/kg/injection, schedule: Q01DX009 (ip), vehicle: Klucel (hydroxypropylcellulose) (HPC)) 96 % of control. For the same compound, the T/C by setting is: (dose: 30.0 micrograms/kg/injection, schedule: Q01DX009 (ip), vehicle: saline) 88 % of control; (dose: 30.0 micrograms/kg/injection, schedule: Q01DX009 (ip), vehicle: water) 159 % of control; (dose: 60.0 micrograms/kg/injection, schedule: Q01DX009 (ip), vehicle: saline) 100 % of control; (dose: 120.0 micrograms/kg/injection, schedule: Q01DX009 (ip), vehicle: Klucel (hydroxypropylcellulose) (HPC)) 109 % of control; (dose: 120.0 micrograms/kg/injection, schedule: Q01DX009 (ip), vehicle: saline) 94 % of control; (dose: 240.0 micrograms/kg/injection, schedule: Q01DX009 (ip), vehicle: saline) 100 % of control.
Take `CC1CCC2(C)CCC3(C)C(=CCC4C5(C)CCC(O)C(C)(C)C5CCC43C)C2C1C` (stereo unspecified): the T/C is 99 % of control under setting [2], 97 % of control under setting [3] and 90 % of control under setting [4].
For `CCN(C)CCN(C)CC`, the T/C is 95 % of control (dose: 100.0 mg/kg/injection, schedule: Q01DX009 (ip), vehicle: saline) and 109 % of control (dose: 200.0 mg/kg/injection, schedule: Q01DX009 (ip), vehicle: saline).
Turning to `CCCCCCCCCCCCCCCC(=O)OCC1OC(n2ccc(N)nc2=O)C(O)C1O` (stereo unspecified), the T/C was 103 % of control (dose: 1.0 mg/kg/injection, schedule: Q01DX009 (ip), vehicle: saline with Tween-80); 114 % of control (dose: 2.0 mg/kg/injection, schedule: Q01DX009 (ip), vehicle: saline with Tween-80); 99 % of control (dose: 2.5 mg/kg/injection, schedule: Q01DX001 (ip), vehicle: saline with Tween-80); 116 % of control (dose: 4.0 mg/kg/injection, schedule: Q01DX009 (ip), vehicle: saline with Tween-80); 100 % of control (dose: 5.0 mg/kg/injection, schedule: Q01DX001 (ip), vehicle: saline with Tween-80); 110 % of control (dose: 10.0 mg/kg/injection, schedule: Q01DX001 (ip), vehicle: saline with Tween-80). The T/C is, setting by setting: (dose: 20.0 mg/kg/injection, schedule: Q01DX001 (ip), vehicle: saline with Tween-80) 104 % of control; (dose: 25.0 mg/kg/injection, schedule: Q04DX003 (ip), vehicle: saline with Tween-80) 122 % of control; (dose: 30.0 mg/kg/injection, schedule: Q01DX009 (ip), vehicle: saline with Tween-80) 170 % of control; (dose: 37.5 mg/kg/injection, schedule: Q01DX001 (ip), vehicle: saline) 152 % of control; (dose: 75.0 mg/kg/injection, schedule: Q01DX001 (ip), vehicle: saline) 186 % of control.
Regarding `Cc1c2cccc(F)c2c[n+]2ccccc12`, the T/C is 100 % of control (dose: 6.25 mg/kg/injection, schedule: Q01DX009 (ip), vehicle: Klucel (hydroxypropylcellulose) (HPC)); 100 % of control (dose: 12.5 mg/kg/injection, schedule: Q01DX009 (ip), vehicle: Klucel (hydroxypropylcellulose) (HPC)); 106 % of control (dose: 25.0 mg/kg/injection, schedule: Q01DX009 (ip), vehicle: Klucel (hydroxypropylcellulose) (HPC)).
With `C1CN(P2(N3CC3)=NP(N3CC3)(N3CC3)=NP(N3CC3)(N3CC3)=N2)CCO1` (stereo unspecified), the T/C under setting [1] is 101 % of control; the T/C (dose: 0.5 mg/kg/injection, schedule: Q01DX009 (ip), vehicle: saline) is 117 % of control; the T/C (dose: 1.0 mg/kg/injection, schedule: Q01DX009 (ip), vehicle: saline) is 117 % of control; the T/C (dose: 1.0 mg/kg/injection, schedule: Q02DX009 (ip), vehicle: saline) is 98 % of control and 104 % of control; the T/C (dose: 2.0 mg/kg/injection, schedule: Q01DX009 (ip), vehicle: saline) was 120 % of control; the T/C (dose: 2.0 mg/kg/injection, schedule: Q02DX009 (ip), vehicle: saline) is 98 % of control and 121 % of control. Besides, the T/C reads like this: (dose: 3.13 mg/kg/injection, schedule: Q01DX009 (ip), vehicle: saline) 111 % of control and 112 % of control; (dose: 3.13 mg/kg/injection, schedule: Q02DX009 (ip), vehicle: saline) 110 % of control and 115 % of control; (dose: 4.0 mg/kg/injection, schedule: Q01DX009 (ip), vehicle: saline) 116 % of control; (dose: 4.0 mg/kg/injection, schedule: Q02DX009 (ip), vehicle: saline) 106 % of control and 122 % of control; (dose: 6.25 mg/kg/injection, schedule: Q02DX009 (ip), vehicle: saline) 93 % of control; (dose: 8.0 mg/kg/injection, schedule: Q02DX009 (ip), vehicle: saline) 108 % of control. In addition, the T/C (dose: 12.5 mg/kg/injection, schedule: Q02DX009 (ip), vehicle: saline) was 154 % of control and 156 % of control; the T/C (dose: 16.0 mg/kg/injection, schedule: Q02DX009 (ip), vehicle: saline) was 151 % of control and 171 % of control; the T/C (dose: 25.0 mg/kg/injection, schedule: Q02DX009 (ip), vehicle: saline) was 164 % of control and 186 % of control and 200 % of control.
With `Cc1ccc2c(c1)C(=O)c1ccccc1S2(=O)=O`, the T/C runs as follows: under setting [3], 104 % of control; under setting [4], 98 % of control; under setting [5], 93 % of control.
Regarding `CSc1nc(=O)[nH]nc1SCc1ccccc1`, the T/C under setting [2] was 98 % of control, the T/C under setting [3] is 105 % of control, the T/C under setting [4] is 98 % of control and the T/C under setting [5] was 110 % of control.
Consider `CC(Cc1ccccc1)NC1CC2CCC1C2` (stereo unspecified), for which the T/C runs as follows: (dose: 12.5 mg/kg/injection, schedule: Q01DX009 (ip), vehicle: saline) 101 % of control; (dose: 25.0 mg/kg/injection, schedule: Q01DX009 (ip), vehicle: saline) 102 % of control; (dose: 50.0 mg/kg/injection, schedule: Q01DX009 (ip), vehicle: saline) 101 % of control.
With `COc1ccc(/C=C(\NC(C)=O)C(=O)O)cc1`, the T/C (dose: 100.0 mg/kg/injection, schedule: Q04DX003 (ip), vehicle: Klucel (hydroxypropylcellulose) (HPC)) was 97 % of control; the T/C (dose: 200.0 mg/kg/injection, schedule: Q04DX003 (ip), vehicle: Klucel (hydroxypropylcellulose) (HPC)) is 105 % of control; the T/C (dose: 400.0 mg/kg/injection, schedule: Q04DX003 (ip), vehicle: Klucel (hydroxypropylcellulose) (HPC)) was 91 % of control.
